According to article PMC5884943, “Discovery of Novel Inhibitors of Indoleamine 2,3-Dioxygenase 1 Through Structure-Based Virtual Screening” (Frontiers in Pharmacology, 2018):

Target: T1, human IDO1 protein (Homo sapiens, UniProt P14902)
T1 construct: purchased ChemPartner Lot; No. 20160706
Experiment: Enzymatic IDO1 assay (Absorbance 321 assay)
Format: biochemical
Details: for Inhibition ratio (%) @ 20 μM / inhibition at 20 µM: 20 μM compound; for Avg_Inh (%) @ 50uM: average inhibition, Table S2; for Background (%): background signal of the compound in the absorbance assay; for inhibition at 20 µM: read-out: Inhibition ratio (%) @ 20 μM
Protocol: The standard assay mixture contained modified potassium phosphate buffer at pH 6.5, 100 μM L-tryptophan (Sigma, Cat. […] No. […]). […] Then the assay plate was read at OD321 kinetically in Spectramax. […] Fit the data in […]5.0 software to obtain IC50-values using Equation (2): (2) Y=Bottom+Top-Bottom/1+10^(logIC50-X)×HillSlope where Y stands for inhibition percentage and X stands for compound concentration. All determinations were carried out in duplicate.

T1 sequence (P14902 whole entry): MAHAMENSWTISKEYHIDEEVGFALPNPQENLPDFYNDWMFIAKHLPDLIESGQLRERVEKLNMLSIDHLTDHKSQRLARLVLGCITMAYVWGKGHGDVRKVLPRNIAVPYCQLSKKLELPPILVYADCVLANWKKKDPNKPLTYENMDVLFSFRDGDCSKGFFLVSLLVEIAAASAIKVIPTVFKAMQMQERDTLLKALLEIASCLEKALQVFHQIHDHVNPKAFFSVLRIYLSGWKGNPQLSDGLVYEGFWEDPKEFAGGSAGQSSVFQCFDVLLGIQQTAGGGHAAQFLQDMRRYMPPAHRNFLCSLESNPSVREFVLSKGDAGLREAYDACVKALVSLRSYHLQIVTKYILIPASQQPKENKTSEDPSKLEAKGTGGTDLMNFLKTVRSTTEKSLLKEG

## Nc1ccc(Br)cc1C(O)c1ccc(Cl)cc1 (stereo not drawn) [DC-I032]
  Inhibition ratio (%) @ 20 μM: 25.26%
  Avg_Inh (%) @ 50uM: 63.02%
  Background (%): 33.85%

## O=C(COC(=O)c1ccc2ccccc2n1)c1ccc(Cl)cc1 [DC-I046]
  Inhibition ratio (%) @ 20 μM: 28.10%
  Avg_Inh (%) @ 50uM: 63.18%
  Background (%): 44.38%

## Cc1cc(-c2cccs2)c2c(N)c(C(=O)NCCc3c[nH]c4ccccc34)sc2n1 [DC-I079]
  Inhibition ratio (%) @ 20 μM: 36.42%
  Avg_Inh (%) @ 50uM: 85.60%
  Background (%): 60.62%

## O=C(CSc1nnc(COc2ccc(Cl)cc2Cl)o1)Nc1ccccn1 [DC-I090]
  Inhibition ratio (%) @ 20 μM: 41.43%
  Avg_Inh (%) @ 50uM: 95.14%
  Background (%): 34.84%

## Cc1cccc(-c2nnc(SCC(=O)Nc3c(C)cc(C)cc3C)o2)c1 [DC-I102]
  Inhibition ratio (%) @ 20 μM: 15.17%
  Avg_Inh (%) @ 50uM: 80.83%
  Background (%): 43.32%

## CC(=O)c1ccc(N2COc3ccc4ccccc4c3C2)cc1 [DC-I02801]
  inhibition at 20 µM: 17.8%

## CC(=O)Nc1cccc2ccc3c(c12)CN(Cc1ccccc1)CO3 [DC-I02803]
  inhibition at 20 µM: -11.2%
SAR discussion
  IDO1 inhibitory activity (in words): inactive

## O=C(NC(=S)Nc1c(O)ccc2ccccc12)c1ccccc1I [DC-I02807]
  inhibition at 20 µM: 59.6%
IDO1 enzymatic level
  IC50: 25 µM

## COc1ccc(C(=O)NC(=S)Nc2cccc3cc(O)ccc23)cc1OC [DC-I02809]
  inhibition at 20 µM: 17.6%

## O=C(NC(=S)Nc1cccc2cc(O)ccc12)c1ccco1 [DC-I02810]
  inhibition at 20 µM: 15.6%

## CCCCOc1cccc(-c2c(O)ccc3ccccc23)c1 [DC-I02811]
  inhibition at 20 µM: 8.19%

## CC(=O)N(C)c1ccc(-c2c(O)ccc3ccccc23)cc1 [DC-I02812]
  inhibition at 20 µM: 4.69%

## Oc1ccc2ccccc2c1Sc1nnnn1-c1ccccc1 [DC-I02813]
  inhibition at 20 µM: 15.6%

## Nc1ncnc2sc3c(c12)CCC3 [DCI-001]
  Avg_Inh (%) @ 50uM: -9.13%
  Background (%): 42.64%

## c1ccc2cc(OCc3nc4ccccc4s3)ccc2c1 [DCI-002]
  Avg_Inh (%) @ 50uM: 81.62%
  Background (%): 44.08%

## O=C(OCc1ccc(Cl)cc1)c1cc2ccccc2cc1O [DCI-003]
  Avg_Inh (%) @ 50uM: 35.38%
  Background (%): 51.94%

## Clc1ccc2[nH]cc(-c3nnnn3-c3ccccc3)c2c1 [DCI-004]
  Avg_Inh (%) @ 50uM: 49.29%
  Background (%): 38.90%

## COc1ccc(CNC(=O)COc2ccc3ccccc3c2)cc1 [DCI-005]
  Avg_Inh (%) @ 50uM: 11.86%
  Background (%): 36.51%

## CC(=O)Nc1ccc(NC(=O)C2CC(=O)N(c3ccccc3)C2)cc1 (stereo not drawn) [DCI-006]
  Avg_Inh (%) @ 50uM: 2.62%
  Background (%): 34.97%

## N#Cc1c(SCC(N)=O)nc2c(c1-c1cccnc1)CCC2 [DCI-007]
  Avg_Inh (%) @ 50uM: -0.85%
  Background (%): 44.80%

## COc1cccc(-c2[nH]nc3c2C(c2ccccc2F)C(C#N)=C(N)O3)c1 (stereo not drawn) [DCI-008]
  Avg_Inh (%) @ 50uM: 22.90%
  Background (%): 42.25%

## Nc1ccccc1/C=C1/C(=O)Nc2ccccc21 [DCI-009]
  Avg_Inh (%) @ 50uM: 12.24%
  Background (%): 52.98%

## O=c1cnc2ccccc2n1Cc1cccc(Cl)c1 [DCI-010]
  Avg_Inh (%) @ 50uM: 18.26%
  Background (%): 46.13%

## COc1ccc(/C=C\c2nccc3ccccc23)cc1OC [DCI-011]
  Avg_Inh (%) @ 50uM: 2.22%
  Background (%): 51.96%

## Cc1cc(=O)oc2cc(OCCSc3ccccc3)ccc12 [DCI-012]
  Avg_Inh (%) @ 50uM: 42.86%
  Background (%): 56.72%

## Cc1ccc(C)c(C(=O)CSc2ncnc3nc[nH]c23)c1 [DCI-013]
  Avg_Inh (%) @ 50uM: 4.76%
  Background (%): 38.66%

## Cc1ccc(C(C)C)cc1C(=O)CC1(O)C(=O)N(C)c2ccc(Br)cc21 (stereo not drawn) [DCI-014]
  Avg_Inh (%) @ 50uM: 28.34%
  Background (%): 41.98%

## O=C(NCC1CCCO1)c1ccc(COc2ccc3ccccc3c2)cc1 (stereo not drawn) [DCI-015]
  Avg_Inh (%) @ 50uM: 20.11%
  Background (%): 40.12%

## COc1ccc(C(N)=O)cc1NS(=O)(=O)c1cccc2cccnc12 [DCI-016]
  Avg_Inh (%) @ 50uM: 5.08%
  Background (%): 38.92%

## Cc1sc2ncnc(SCC(=O)Nc3ccc(S(N)(=O)=O)cc3)c2c1C [DCI-017]
  Avg_Inh (%) @ 50uM: 37.65%
  Background (%): 48.33%

## CC(O)CNCc1ccc(OCc2ccc3c(c2)OCCO3)cc1 (stereo not drawn) [DCI-018]
  Avg_Inh (%) @ 50uM: -2.06%
  Background (%): 34.42%

## c1csc(CNCCCc2nc3ccccc3[nH]2)c1 [DCI-019]
  Avg_Inh (%) @ 50uM: -8.21%
  Background (%): 33.33%

## Cc1cccc(C)c1N1CC(C(=O)Nc2cccc3ccccc23)CC1=O (stereo not drawn) [DCI-020]
  Avg_Inh (%) @ 50uM: 10.24%
  Background (%): 35.53%

## CC1CCCN(C(C)CS(=O)(=O)c2ccc3ccccc3c2)C1 (stereo not drawn) [DCI-021]
  Avg_Inh (%) @ 50uM: -2.20%
  Background (%): 37.17%

## COc1cc2c(cc1OC)C(c1ccc(Br)cc1)OCC2 (stereo not drawn) [DCI-022]
  Avg_Inh (%) @ 50uM: 34.49%
  Background (%): 44.32%

## Cc1ccc(/C=N/Nc2nc3ccccc3[nH]c2=O)cc1 [DCI-023]
  Avg_Inh (%) @ 50uM: -2.26%
  Background (%): 53.84%

## CC(C)c1ccc(O)c(C(=O)c2cnn(-c3ccccc3)c2)c1 [DCI-024]
  Avg_Inh (%) @ 50uM: 45.39%
  Background (%): 56.24%

## O=c1c(-c2nc3ccccc3[nH]2)coc2cc(O)ccc12 [DCI-025]
  Avg_Inh (%) @ 50uM: 9.07%
  Background (%): 66.83%

## COc1ccc2ccccc2c1/C=C(\C#N)c1nc2ccccc2[nH]1 [DCI-026]
  Avg_Inh (%) @ 50uM: 98.78%
  Background (%): 66.01%

## Cc1sc2nn[nH]c(=O)c2c1C [DCI-027]
  Avg_Inh (%) @ 50uM: 43.67%
  Background (%): 56.25%

## COc1cc2sc3c(=O)[nH]c4ccccc4c3c2cc1OC [DCI-029]
  Avg_Inh (%) @ 50uM: -6.51%
  Background (%): 40.56%

## CCCC1CCc2c(c3ccccc3[nH]c2=O)O1 (stereo not drawn) [DCI-030]
  Avg_Inh (%) @ 50uM: 11.57%
  Background (%): 45.02%

## O=[N+]([O-])C1C(O)c2ccccc2OC1c1ccccc1 (stereo not drawn) [DCI-031]
  Avg_Inh (%) @ 50uM: 13.99%
  Background (%): 39.14%

## OC1Cc2ccccc2Sc2c(Cl)cccc21 (stereo not drawn) [DCI-033]
  Avg_Inh (%) @ 50uM: 45.38%
  Background (%): 34.53%

## O=C(NCCCNC(=O)c1cc2ccccc2[nH]1)c1ccc(F)cc1 [DCI-034]
  Avg_Inh (%) @ 50uM: 5.04%
  Background (%): 42.24%

## CN(CCCNc1cc(=O)oc2ccccc12)C(=O)c1ccc(F)cc1 [DCI-035]
  Avg_Inh (%) @ 50uM: 2.22%
  Background (%): 46.21%

## Cc1cccc(NC(=S)NC(=O)c2cc3ccccc3o2)n1 [DCI-036]
  Avg_Inh (%) @ 50uM: 76.32%
  Background (%): 74.58%

## CC(=O)c1nc2ccccc2[nH]1 [DCI-037]
  Avg_Inh (%) @ 50uM: 24.85%
  Background (%): 60.63%

## Cc1cc(=O)c2ccc(C(F)(F)F)cc2[nH]1 [DCI-038]
  Avg_Inh (%) @ 50uM: 6.52%
  Background (%): 60.07%

## O=C(CC1Nc2ccccc2NC1=O)NCc1ccccc1 (stereo not drawn) [DCI-039]
  Avg_Inh (%) @ 50uM: -1.03%
  Background (%): 36.31%

## NNC(=O)c1ccc(COc2ccc3c(c2)CCC3)cc1 [DCI-040]
  Avg_Inh (%) @ 50uM: 40.66%
  Background (%): 31.86%

## CCCn1c(=O)c(C(=O)Nc2ccccc2N)c(O)c2ccccc21 [DCI-041]
  Avg_Inh (%) @ 50uM: 72.23%
  Background (%): 50.76%

## O=C1OC(c2ccccc2)c2ccc3ccccc3c21 (stereo not drawn) [DCI-042]
  Avg_Inh (%) @ 50uM: 59.00%
  Background (%): 48.79%

## CCCc1[nH]nc2c1C(c1cccc(O)c1)C(C#N)=C(N)O2 (stereo not drawn) [DCI-043]
  Avg_Inh (%) @ 50uM: 1.84%
  Background (%): 30.60%

## CCOc1nccc2sc3ccccc3c12 [DCI-044]
  Avg_Inh (%) @ 50uM: 44.52%
  Background (%): 40.43%

## Cc1c(-c2ccccc2)nc(-c2ccccc2)[nH]c1=O [DCI-045]
  Avg_Inh (%) @ 50uM: 11.41%
  Background (%): 39.40%

## O=c1cc(NCCN2CCCC2)c2ccccc2o1 [DCI-047]
  Avg_Inh (%) @ 50uM: -3.88%
  Background (%): 42.54%

## COc1ccc(-c2nc(=O)cc(-c3ccccc3)o2)cc1 [DCI-048]
  Avg_Inh (%) @ 50uM: 7.58%
  Background (%): 71.51%

## CC(Oc1ccccc1)C(=O)N1CCc2ccccc21 (stereo not drawn) [DCI-049]
  Avg_Inh (%) @ 50uM: 1.65%
  Background (%): 31.42%
